Read-outs that look alike come from different tables or passages of the source. Marks after values point to notes of the source that are not given here.
What was measured:
[1] = tested on: Pyrenophora teres; test: Example C: in vivo preventive test on Pyrenophora teres (net blotch on barley); conditions: barley plants, preventive spray, evaluated 14 days after inoculation
Protocol: (§1) The young plants of barley are treated by spraying the active ingredient prepared as described above. Control plants are treated only with an aqueous solution of acetone/Dimethyl sulfoxide/Tween®. After 24 hours, the plants are contaminated by spraying the leaves with an aqueous suspension of Pyrenophora teres spores.

[2] = tested on: Fusarium graminearum; assay type: in vivo; conditions: 500 ppm of active ingredient; barley, preventive; evaluated 5 days after inoculation
[3] = tested on: Puccinia recondita; test: Example B: in vivo preventive test on Puccinia recondita (brown rust on wheat); conditions: wheat plants, preventive spray, evaluated 11 days after inoculation
Protocol: as §1, with “wheat” for “barley”, “Puccinia recondita” for “Pyrenophora teres”

[4] = tested on: Venturia inaequalis; test: Example O: Venturia test (apples)/preventive; assay type: in vivo; conditions: 100 ppm of active ingredient, preventive, evaluated 10 days after inoculation
Protocol: (§2) Solvent: 24.5 parts by weight of acetone • 24.5 parts by weight of dimethylacetamide Emulsifier: 1 part by weight of alkylaryl polyglycol ether To produce a suitable preparation of active compound, 1 part by weight of active compound is mixed with the stated amounts of solvent and emulsifier, and the concentrate is diluted with water to the desired concentration. To test for preventive activity, young plants are sprayed with the preparation of active compound at the stated rate of application.

[5] = tested on: Botrytis cinerea; test: Example A: in vivo preventive test on Botrytis cinerea (grey mould); conditions: gherkin plants, preventive spray, evaluated 4 to 5 days after inoculation
Protocol: as §1, with “gherkin” for “barley”, “Botrytis cinerea” for “Pyrenophora teres”

[6] = tested on: Fusarium culmorum; test: Example H: Fusarium culmorum-test (wheat)/curative; assay type: in vivo; conditions: 500 ppm of active ingredient, curative, evaluated 5 days after inoculation
Protocol: Solvent: 49 parts by weight of N,N-dimethylacetamide
Emulsifier: 1 part by weight of alkylaryl polyglycol ether
To produce a suitable preparation of active compound, 1 part by weight of active compound or active compound combination is mixed with the stated amounts of solvent and emulsifier, and the concentrate is diluted with water to the desired concentration.
To test for curative activity, young plants are slightly injured by using a sandblast and afterwards they are sprayed with a conidia suspension of Fusarium culmorum and placed for 24 hours in a greenhouse under a translucent incubation cabinet at a temperature of approximately 22° C. and a relative atmospheric humidity of approximately 100% and are subsequently sprayed with the preparation of active compound at the stated rate of application.
After the spray coating has been dried, the plants remain in the greenhouse under translucent incubation cloches at a temperature of approximately 22° C. and a relative atmospheric humidity of approximately 100%.
The test is evaluated 5 days after the inoculation. 0% means an efficacy which corresponds to that of the untreated control, while an efficacy of 100% means that no disease is observed.

[7] = tested on: Septoria tritici; test: Example D: in vivo preventive test on Septoria tritici (leaf spot on wheat); conditions: wheat plants, preventive spray, evaluated 24 days after inoculation
Protocol: as §1, with “wheat” for “barley”, “Septoria tritici” for “Pyrenophora teres”

[8] = tested on: Fusarium nivale (var. majus); test: Example J: Fusarium nivale (var. majus)-test (wheat)/preventive; assay type: in vivo; conditions: 500 ppm of active ingredient, preventive, evaluated 5 days after inoculation
Outline: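 Young wheat plants sprayed preventively with active compound (DMA/emulsifier concentrate diluted in water) at the stated rate, then sandblast-wounded and inoculated with conidia. Held in greenhouse at ~10 °C, ~100% RH. Efficacy scored 5 days post-inoculation: 0% = untreated control, 100% = no disease.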

[9] = tested on: Leptosphaeria nodorum; test: Example K: Leptosphaeria nodorum test (wheat)/preventive; assay type: in vivo; conditions: 500 ppm of active ingredient, preventive, evaluated 8 days after inoculation
Protocol: Solvent: 49 parts by weight of N,N-dimethylacetamide Emulsifier: 1 part by weight of alkylaryl polyglycol ether To produce a suitable preparation of active compound, 1 part by weight of active compound or active compound combination is mixed with the stated amounts of solvent and emulsifier, and the concentrate is diluted with water to the desired concentration. To test for preventive activity, young plants are sprayed with the preparation of active compound or active compound combination at the stated rate of application. After the spray coating has been dried, the plants are sprayed with a spore suspension of Leptosphaeria nodorum.

[10] = tested on: Phakopsora pachyrhizi; test: Example L: Phakopsora test (soybeans)/preventive; assay type: in vivo; conditions: 100 ppm of active ingredient, preventive, evaluated 7 days after inoculation
[11] = tested on: Uromyces appendiculatus; test: Example F: in vivo preventive test on Uromyces appendiculatus (bean rust); conditions: bean plants, preventive spray, evaluated 11 days after inoculation
Protocol: as §1, with “bean” for “barley”, “Uromyces appendiculatus” for “Pyrenophora teres”

[12] = tested on: Blumeria graminis f. sp. hordei; test: Example G: Blumeria test (barley)/preventive; assay type: in vivo; conditions: 500 ppm of active ingredient, preventive, evaluated 7 days after inoculation
Outline: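 Active compound formulated in N,N-dimethylacetamide with alkylaryl polyglycol ether emulsifier, diluted in water, and sprayed onto young barley plants at the stated application rate. Once the coating dried, plants were dusted with Blumeria graminis f. sp. hordei spores as a preventive test.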

[13] = tested on: Pyricularia oryzae; assay type: in vivo; conditions: 500 ppm of active ingredient; rice, preventive; evaluated 8 days after inoculation
[14] = tested on: Sphaerotheca fuliginea; test: Example E: in vivo preventive test on Sphaerotheca fuliginea (powdery mildew on cucurbits); conditions: gherkin plants, preventive spray, evaluated 15 days after inoculation
Protocol: as §1, with “gherkin” for “barley”, “Sphaerotheca fuliginea” for “Pyrenophora teres”

[15] = tested on: Podosphaera leucotricha; test: Example M: Podosphaera test (apples)/preventive; assay type: in vivo; conditions: 100 ppm of active ingredient, preventive, evaluated 10 days after inoculation
Protocol: as §2, with “application. After the spray coating has dried on, the plants are inoculated with an aqueous spore suspension of the causal agent of apple mildew (Podosphaera leucotricha).” for “application.”

[16] = method [a]: LC-MS at pH 2.7, 0.1% formic acid in water / acetonitrile gradient

Structure (SMILES)	Eff. % ([1]; 500 ppm of active ingredient)	Eff. % [2]	Eff. % ([3]; 500 ppm of active ingredient)	Eff. % [4]	Eff. % ([5]; 500 ppm of active ingredient)	LogP (pH 2.7)	Eff. % [6]	Eff. % ([7]; 500 ppm of active ingredient)	Eff. % [8]	Eff. % [9]	Eff. % [10]	Eff. % ([11]; 500 ppm of active ingredient)	Eff. % [12]	Eff. % [13]	Eff. % ([14]; 500 ppm of active ingredient)	Eff. % ([14]; 100 ppm of active ingredient)	Eff. % ([3]; 100 ppm of active ingredient)	Eff. % ([5]; 100 ppm of active ingredient)	Eff. % ([7]; 100 ppm of active ingredient)	Eff. % ([11]; 100 ppm of active ingredient)	also measured
OC(Cc1cc(F)ncc1Cl)(Cn1cncn1)C1(F)CC1 (racemic) [Example I-65]	100%	100%	98%	100%	100%	1.77^[a]	100%	100%	100%	100%	100%	100%	100%	86%	100%						
OC(Cc1cccnc1Cl)(Cn1cncn1)C1(Cl)CC1 (stereo not drawn) [Example I-3]	100%	100%	98%	98%	100%	1.78^[a]	100%	100%	100%	100%	100%	100%	100%	100%		100%					Eff. % [15]: 100%
OC(Cc1ccncc1Cl)(Cn1cncn1)C1(Cl)CC1 (stereo not drawn) [Example I-5, 2-(1-chlorocyclopropyl)-1-(3-chloropyridin-4-yl)-3-(1H-1,2,4-triazol-1-yl)propan-2-ol]		100%	100%	100%	100%		100%	100%	100%	90%	100%	98%	100%	75%	100%						Eff. % [15]: 100%
CC(CF)(CF)C(O)(Cc1ccncc1Cl)Cn1cncn1 (stereo not drawn) [Example I-6]		100%		100%		1.54^[a]	100%		100%	100%	95%		100%	83%		100%	81%	76%	100%	100%	
OC(Cc1ccncc1Cl)(Cn1cncn1)C1(F)CC1 (stereo not drawn) [Example I-7]		100%		98%			100%		100%	100%	94%		100%	100%		100%	94%	100%	98%	100%	Eff. % ([1]; 100 ppm of active ingredient): 92%; LogP [16]: 1.29^[a]
CC1(C(O)(Cc2cccnc2Cl)Cn2cncn2)CC1 (stereo not drawn) [Example I-8]		100%		100%			100%		100%	92%	95%		100%	100%		100%	94%	87%	94%	100%	LogP [16]: 1.73^[a]
OC(Cc1ccncc1F)(Cn1cncn1)C1(Cl)CC1 (stereo not drawn) [Example I-18]		100%		100%		1.29^[a]	100%		100%	100%	95%		100%			100%	94%	100%	98%	97%	Eff. % ([1]; 100 ppm of active ingredient): 83%; Eff. % [15]: 97%
OC(Cc1cccnc1F)(Cn1cncn1)C1(Cl)CC1 (stereo not drawn) [Example I-51]	100%	100%	98%	94%	100%	1.64^[a]	100%	100%	100%	100%	100%	86%	100%	80%	100%						
OC(Cc1ccc(Cl)nc1Cl)(Cn1cncn1)C1(Cl)CC1 (stereo not drawn) [Example I-53]	86%	100%	94%	97%	100%	2.55^[a]	90%	100%	100%	100%	93%	98%	100%	80%	100%						
OC(Cc1ccnc(Cl)c1F)(Cn1cncn1)C1(Cl)CC1 (stereo not drawn) [Example I-60]	100%	100%	98%	100%	100%	2.02^[a]	83%	97%	100%	100%	100%	100%	100%		100%						
